# Measured values published in article PMC4541410 (Scientific Reports, 2015).
# Columns and labels:
# proteinase K = experiment: in vitro; settings: proteinase K in PBS, pH 7.2
# Method: Chromatographic analyses were performed using an ODS-C8 column (5 μm, 100 mm × 2.0 mm ID) kept at ambient temperature. The mobile phase was composed of acetonitrile-water-formic acid in the ratio of 50:50:0.1 (v/v/v) at a flow rate of 0.3 mL/min. The sample injection volume was 10 μL. Acetonitrile was HPLC grade and other chemical reagents and solvents were analytical grade. A Thermo TSQ Quantum Discovery MAX triple-quadruple tandem mass spectrometer equipped with ESI source (San Jose, CA) and Surveyor LC pump were used for LC-MS analysis. Data acquisition and data processing were performed by using Xcalibur software and LCQuan 2.0 data analysis program (Thermo Finnigan), respectively. Optimized MS parameters were as below: 4800 V spray voltage, 40.0 psi sheath gas pressure, 1.0 psi auxiliary valve flow and 300 °C of capillary temperature. When running collision-induced dissociation (CID), the pressure was set to 1.5 mTorr.
# The peptides (10 μg/mL) were prepared in PBS pH 7.2 containing 20 ng/ml proteinase K. The resulting mixture were incubated at 37 °C in a water bath and taken out at different time intervals (0, 5, 15, 30, 60, 120 minutes), followed by quenching the samples with ethyl alcohol and quantitating the peptides by LC-MS analysis as described above.
# [1] = intravenous 1 mg/kg, male SD rats, n = 2; plasma by sandwich ELISA; PK Solver
# Method: (§1) Four male SD rats weighing approximately 200 g each were obtained from the Shanghai Medical School Animal Center and were used for the half-life assay. […] After injection, blood samples were acquired from rat orbit at several time points (8 and 30 min and 1.5, 3, 6, 9, 12 and 24 h after peptide injection) and placed in clean tubes. […] Then, HRP-labeled rabbit-anti-mouse IgG (Sigma, USA) and TMB were added in order. Absorbance at 450 nm was determined by an ELISA reader (Ultra 384, Tecan). The standard peptide parameters were obtained first. Then, the plasma peptide concentrations were determined as a function of time and the half-life was calculated by using PK Solver for Microsoft Excel to obtain pharmacokinetic parameters.
# in vivo = settings: male, Sprague-Dawley (SD), rat, plasma, iv, 1 mg/kg
# Method: as §1
# [2] = cited from earlier work
# [3] = subcutaneously twice daily at 90 mg per dose; cited from earlier work
substance,measurement,setting,value
enfuvirtide,"remaining at 2 h, 10 μg/mL",proteinase K,29%
same,Cmax,[1],314.80 µg/mL
same,MRT,in vivo,2.27 h
same,half-life,in vivo,1.57 h
same,half-life in plasma,[2],about 2 h
same,injection-site reactions,[3],often causing serious injection-site reactions
